Test results reported in patent US20110124644A1, “METHODS OF DIAGNOSING AND CHARACTERIZING CANNABINOID SIGNALING IN CROHN'S DISEASE” (CEDARS-SINAI MEDICAL CENTER, priority 2008, published 2011).

Key:
[1] = tested on: CB2 receptor; assay: CB2 agonist (AM1241) inhibition of forskolin-stimulated cAMP production in patient lymphoblastoid cell lines, ELISA; type: cell-based, human; conditions: 250 nM AM1241; 25 nM forskolin; Crohn's disease patient LCLs
Method: FIG. 7 depicts, in accordance with an embodiment herein, CB2 receptor protein expression and function. Flow cytometry data derived from staining of 40 Crohn's disease patient lymphoblastoid cell lines with monoclonal CB2 receptor (IgG2A) was generated. LCLs from patients with Crohn's disease were grown in culture and plated 1×10^6 per well on a 96 well plate. These cells were then incubated for 20 minutes with 10 mM IBMX, a phosphodiesterase inhibitor, and washed. Cells were incubated in the presence of various concentrations of forskolin or media control with or without the addition of 250 nM AM1241. Samples were run in triplicate. […] Plates were frozen at −20 degrees and lysates assayed the following day for cAMP concentration using a commercial ELISA kit (R and D) and microwell ELISA plate reader.
A CNR2 candidate gene case-control analysis was performed with 449 patients with Crohn's disease, 215 with ulcerative colitis, and 201 controls. […] EBV immortalized lymphoblastoid cell lines (LCLs) were analyzed for CB2 receptor by flow cytometry, and for CB2 receptor function (Gi-mediated adenylate cyclase inhibition) by CB2 agonist (AM1241) inhibition of forskolin-stimulated cAMP production, measured by ELISA.
To assess the LCL response to CB2 specific agonist, intracellular cAMP was quantified using a standard ELISA kit (R and D Systems). […]

[2] = tested on: murine model of immune colitis (Rag1 −/− mice); assay: Immune colitis model: transfer of Gαi2−/− T cells into Rag1 −/− mice; type: in vivo, mouse; conditions: i.p. every other day, vs DMSO vehicle
[3] = tested on: murine model of acute colitis (DSS, C3H/HeJ mice); assay: Acute colitis model: dextran sodium sulfate (DSS) colitis; type: in vivo, mouse; conditions: 3.5% DSS; 1 mg/kg i.p. from two days before DSS, then every other day
From the text: FIG. 11 (a) depicts, in accordance with an embodiment herein, the effect of CB2 agonist on murine model of acute colitis. Groups of 5 wildtype C3H/HeJ mice were challenged with either DSS 3.5% or acidified water and injected intraperitoneally with CB2 agonist (AM1241(AM)) or antagonist (SR144928 (SR)) or vehicle control (DMSO (D) for AM1241, or EtOH (E) for SR144928) and monitored for weight loss. Intestinal sections were scored histologically at day 10. (b) and (c.) depicts the comparison of DSS colitis in CB2−/− and WT mice, with (b) weight loss and (c) histologic scoring. This is representative of three or more independent experiments.
3.5% Dextran sulfate sodium (prepared in acidified drinking water) was obtained from MP Biomedicals, Inc (Solon, Ohio). Acidified drinking water of colitis-induced mice was replaced with DSS solution for a total of eight days. Controls were given standard acidified drinking water. All mice were sacrificed on day 12, at which time the DSS-treated mice had lost approximately 20% of their body weight. Experiments were performed in duplicate, with groups of 6 mice in each treatment arm. AM1241 (Sigma-Aldrich, MO, in DMSO, 1 mg/mL) was suspended in 250 μL sterile 0.9% saline and injected intraperitoneally (i.p.) at a dose of 1 mg/kg beginning two days prior to the administration of DSS (or acidified drinking water in the control group) and then every other day until the mice were euthanized. […]
Colitis was quantified by both weight loss and histology of intestinal sections. […] Each section was then scored by one blinded pathologist using a standard experimental colitis scoring system.
The effect of CB2-specific agonist in the setting of acute colitis was evaluated using dextran sodium sulfate (DSS), an ingested agent which induces acute, non-T cell mediated colitis (weight loss and bloody diarrhea) within three to five days. Mice were pre-treated with AM1241 or vehicle control, and then monitored for the level of acute colitis induced by DSS ingestion. […]

## CN1CCCCC1Cn1cc(C(=O)c2cc([N+](=O)[O-])ccc2I)c2ccccc21 (stereo not drawn) [AM1241]
[1]
  inhibition of forskolin-stimulated adenylate cyclase-dependent cAMP response: approximately 55%
[2]; Rag1 −/− mice after Gαi2−/− T cell transfer
  weight loss compared to vehicle control: lost significantly less weight
[2]; sacrificed 8 weeks after T cell transfer
  quantitative histologic scoring of intestinal inflammation compared to vehicle control: dramatically reduced for inflammation
[3]
  DSS colitis severity compared to vehicle control: significantly more severe

## SR144528
[3]
  DSS colitis severity compared to vehicle control: ameliorated DSS colitis

## COc1ccc(C(=O)c2c(C)n(CCN3CCOCC3)c3cc(I)ccc23)cc1 [AM630]
[3]
  DSS colitis severity compared to vehicle control: reduced DSS colitis severity
